Test results from PubChem BioAssay AID1963834 (Molecular Pharmacology Branch, DTP, NCI, 2024).

Tested on: 873145-292-R-J1-PDC complex spheroid viability
Experiment: Anticancer human tumor 873145-292-R-J1-PDC patient-derived renal clear cell carcinoma cell line growth inhibition [POLQ]
Conditions: for IC50: curve of first compound; for viability, T/C: stronger effect = lower value
Protocol: Multicellular complex tumor spheroid response to Polymerase (POL) inhibitors (novobiocin, ART-558, RP6685) in combination with a variety of drugs and investigational agents in selected tumor cell lines
The POL inhibitors (novobiocin, ART-558, and RP6685) were evaluated both individually and in combination with standard of care and investigational anticancer small molecules within a complex spheroid model of solid tumors. . Complex spheroids include a stromal component modeled by human endothelial cells (HUVEC) and fibroblasts modeled by human mesenchymal stem cells (MSCs). The concentration ranges selected for each drug and investigational agent were based upon clinically achievable concentrations if the clinical Cmax of the agent was known.
Compounds. The drugs and investigational agents: novobiocin (NSC847541), ART-558 (NSC835418), RP-6685 (NSC848927), peposertib (NSC802822), ceralasertib (NSC780249), elimusertib (NSC800525), camonsertib (NSC841442), AZD-1390 (NSC803789), olaparib (NSC753686), talazoparib (NSC767125), rucaparib (NSC756644), sotorasib (NSC818433), MRTX-1133 (NSC836407), SN-38 (NSC673596), topotecan (NSC609699), epotoside (NSC141540), doxorubicin (NSC123127), gemcitabine (NSC613327), 5-fluorouracil (NSC19893), paclitaxel (NSC125973), vemurafenib (NSC761431), MSA-2 (NSC828583), SN-011 (NSC837082), adavosertib (NSC754352), prexasertib (NSC758257), carboplatin (NSC241240) and oxaliplatin (NSC266046), were obtained from the National Cancer Institute (NCI) Developmental Therapeutics Program Chemical Repository (21). The FDA-approved anticancer drug set is available from the Developmental Therapeutics Program at https://dtp.cancer.gov/organization/dscb/obtaining/. […] The stock solutions were prepared in dimethyl sulfoxide (DMSO, Sigma-Aldrich, St. Louis, MO, cat. D2650), except for the platinum compounds which were prepared in saline (Quality Biological, Gaithersburg, MD, cat. 114-055-101), at 800-fold the tested concentration and stored at -70 degrees C prior to their use. All drugs and investigational agents were tested over a range starting from a high concentration at or near the clinical Cmax and decreasing in half-log increments. If the clinical Cmax for an agent had not been determined, the highest concentration tested was 10 microM, except for SN-38, which was tested at a high concentration of 1 microM.
Cell Culture. All cells were maintained in an incubator at 37 degrees C and 5% CO2 with 95% humidity. The PDC lines were cultured according to standard operating procedures established by the NCI PDMR (https://pdmr.cancer.gov). Table 3 of the manuscript, lists the cell lines along with the number of the three cell types plated to form the mct-spheroids and media for tumor cell growth. After thawing, all PDC lines, except 997537-175-T-J1-PDC and 415267-285-R-J2-PDC, were cultured in Matrigel-coated flasks prepared with a working solution of 1X Ham's F-12 nutrient mix, without supplementation (Thermo Fisher Scientific, cat. 11765054), 100 U/mL penicillin-streptomycin (Thermo Fisher Scientific, cat. 15140122), and 2.5% Matrigel (Corning Inc., Corning, NY, cat. 354248) for the first three passages. The two PDC lines 997537-175-T-J1-PDC and 415267-285-R-J2-PDC were cultured on uncoated flasks. The 857933-349-R-J2-PDC line was cultured in 6C/Colon 1B media containing advanced DMEM/F-12 (Thermo Fisher Scientific, cat. 12634028), 10 mM HEPES (Thermo Fisher Scientific, cat. 15630080), 1X GlutaMAX supplement (Thermo Fisher Scientific, cat. 35050061), 0.1 mg/mL primocin (InvivoGen, San Diego, CA, cat. ant-pm-2), 10% defined fetal bovine serum, heat inactivated (HyClone Laboratories Inc., Logan, UT, cat. SH30070.03HI), 50% L-WRN conditioned media (ATCC, cat. CRL-3276), 1.25 mM N-Acetyl-L-cysteine (Sigma-Aldrich, cat. A9165), 10 mM nicotinamide (Sigma-Aldrich, cat. N0636), 1X B-27 supplement (Thermo Fisher Scientific, cat. 17504044), 1X N-2 supplement (Thermo Fisher Scientific, cat. […]

[1] = second compound 0.0316 µM, first compound 0.0316 µM
[2] = second compound 0.0316 µM, first compound 0.1 µM
[3] = second compound 0.0316 µM, first compound 0.316 µM
[4] = second compound 0.0316 µM, first compound 1 µM
[5] = second compound 0.1 µM, first compound 0.0316 µM
[6] = second compound 0.1 µM, first compound 0.1 µM
[7] = second compound 0.1 µM, first compound 0.316 µM
[8] = second compound 0.1 µM, first compound 1 µM
[9] = second compound 0.316 µM, first compound 0.0316 µM
[10] = second compound 0.316 µM, first compound 0.1 µM
[11] = second compound 0.316 µM, first compound 0.316 µM
[12] = second compound 0.316 µM, first compound 1 µM
[13] = second compound 1 µM, first compound 0.0316 µM
[14] = second compound 1 µM, first compound 0.1 µM
[15] = second compound 1 µM, first compound 0.316 µM
[16] = second compound 1 µM, first compound 1 µM
[17] = second compound 3.16 µM, first compound 0.0316 µM
[18] = second compound 3.16 µM, first compound 0.1 µM
[19] = second compound 3.16 µM, first compound 0.316 µM
[20] = second compound 3.16 µM, first compound 1 µM
[21] = second compound 10 µM, first compound 0.0316 µM
[22] = second compound 10 µM, first compound 0.1 µM
[23] = second compound 10 µM, first compound 0.316 µM
[24] = second compound 10 µM, first compound 1 µM
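Further: spheroids exposed to compounds for 7 days before viability readout.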
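Wherever viability, T/C is given: luminescence signal used as surrogate for viable cell content; 100% = DMSO vehicle control viability.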

`C=CC(=O)N1CCN(c2nc(=O)n(-c3c(C)ccnc3C(C)C)c3nc(-c4c(O)cccc4F)c(F)cc23)C(C)C1` (centres undefined) + Nc1ccc(C#CCN(C(=O)Cc2ncc(C(F)(F)F)cc2C(F)(F)F)c2ccc(F)cc2)nn1 was tested, and the IC50 (second compound 0.0316 µM) was > 10 µM, the IC50 (second compound 0.1 µM) was > 10 µM and the IC50 (second compound 0.316 µM) was > 10 µM. For the same molecule, the IC50 (second compound 1 µM) was > 10 µM, the IC50 (second compound 3.16 µM) was > 10 µM and the IC50 (second compound 10 µM) was > 10 µM. It also gave a viability, T/C [1] of 112%, a viability, T/C [2] of 105% and a viability, T/C [3] of 106%. The viability, T/C [4] was 120%, the viability, T/C (second compound 0.0316 µM, first compound 3.16 µM) was 132% and the viability, T/C (second compound 0.0316 µM, first compound 10 µM) was 134%. The viability, T/C [5] was 111%, the viability, T/C [6] was 110% and the viability, T/C [7] was 117%. The viability, T/C [8] was 124%, the viability, T/C (second compound 0.1 µM, first compound 3.16 µM) was 119% and the viability, T/C (second compound 0.1 µM, first compound 10 µM) was 128%. The viability, T/C [9] was 116%, the viability, T/C [10] was 117% and the viability, T/C [11] was 103%. For the same molecule, the viability, T/C [12] was 126%, the viability, T/C (second compound 0.316 µM, first compound 3.16 µM) was 135% and the viability, T/C (second compound 0.316 µM, first compound 10 µM) was 123%. The viability, T/C [13] was 107%, the viability, T/C [14] was 110% and the viability, T/C [15] was 107%. It also gave a viability, T/C [16] of 129%, a viability, T/C (second compound 1 µM, first compound 3.16 µM) of 136% and a viability, T/C (second compound 1 µM, first compound 10 µM) of 126%. The viability, T/C [17] was 112%, the viability, T/C [18] was 116% and the viability, T/C [19] was 113%. The viability, T/C [20] was 131%, the viability, T/C (second compound 3.16 µM, first compound 3.16 µM) was 135% and the viability, T/C (second compound 3.16 µM, first compound 10 µM) was 139%. It also gave a viability, T/C [21] of 126%, a viability, T/C [22] of 113% and a viability, T/C [23] of 119%. The viability, T/C [24] was 132%, the viability, T/C (second compound 10 µM, first compound 3.16 µM) was 134% and the viability, T/C (second compound 10 µM, first compound 10 µM) was 142%.

For `C=CCn1c(=O)c2cnc(Nc3ccc(N4CCN(C)CC4)cc3)nc2n1-c1cccc(C(C)(C)O)n1` + Nc1ccc(C#CCN(C(=O)Cc2ncc(C(F)(F)F)cc2C(F)(F)F)c2ccc(F)cc2)nn1, the IC50 (second compound 0.0316 µM) was > 1 µM, the IC50 (second compound 0.1 µM) was > 1 µM and the IC50 (second compound 0.316 µM) was > 1 µM. For the same molecule, the IC50 (second compound 1 µM) was > 1 µM, the IC50 (second compound 3.16 µM) was > 1 µM and the IC50 (second compound 10 µM) was > 1 µM. For the same molecule, the viability, T/C (second compound 0.0316 µM, first compound 0.00316 µM) was 93.8%, the viability, T/C (second compound 0.0316 µM, first compound 0.01 µM) was 110% and the viability, T/C [1] was 92.7%. For the same molecule, the viability, T/C [2] was 86.6%, the viability, T/C [3] was 78.5% and the viability, T/C [4] was 77.3%. The viability, T/C (second compound 0.1 µM, first compound 0.00316 µM) was 106%, the viability, T/C (second compound 0.1 µM, first compound 0.01 µM) was 105% and the viability, T/C [5] was 86.4%. For the same molecule, the viability, T/C [6] was 100%, the viability, T/C [7] was 89.2% and the viability, T/C [8] was 74.1%. For the same molecule, the viability, T/C (second compound 0.316 µM, first compound 0.00316 µM) was 91.8%, the viability, T/C (second compound 0.316 µM, first compound 0.01 µM) was 99.1% and the viability, T/C [9] was 79.5%. It also gave a viability, T/C [10] of 86.4%, a viability, T/C [11] of 87.8% and a viability, T/C [12] of 72.9%. For the same molecule, the viability, T/C (second compound 1 µM, first compound 0.00316 µM) was 93.5%, the viability, T/C (second compound 1 µM, first compound 0.01 µM) was 95.3% and the viability, T/C [13] was 94.1%. It also gave a viability, T/C [14] of 88.5%, a viability, T/C [15] of 90.6% and a viability, T/C [16] of 69.3%. It also gave a viability, T/C (second compound 3.16 µM, first compound 0.00316 µM) of 105%, a viability, T/C (second compound 3.16 µM, first compound 0.01 µM) of 103% and a viability, T/C [17] of 88.4%. It also gave a viability, T/C [18] of 90.2%, a viability, T/C [19] of 81.4% and a viability, T/C [20] of 79.8%. The viability, T/C (second compound 10 µM, first compound 0.00316 µM) was 110%, the viability, T/C (second compound 10 µM, first compound 0.01 µM) was 106% and the viability, T/C [21] was 108%. It also gave a viability, T/C [22] of 101%, a viability, T/C [23] of 77.9% and a viability, T/C [24] of 77.8%.
